Consider eight compounds from ChEMBL document CHEMBL6074698, “Heteroaryl Glutarimides and Dihydrouracils as Cereblon Ligand Scaffolds for Molecular Glue Degrader Discovery” (ACS Med Chem Lett, 2024).

A short description of data set [1]: physchem. As to conditions: PBS, pH 7.4.
The next data set is described as follows: in vitro. The conditions noted are these: human.
A short description of data set [2]: physchem. The conditions noted are these: DMEM buffer, pH 7.4.

Structures are written as SMILES. Where only a bound is given, the exact number is not on record here.

In the case of `O=C1CCC(c2cccc3cc[nH]c23)C(=O)N1` (stereo not drawn), the logD in “physchem [1]” worked out at 1.4.

As to `O=C1CCC(c2ccccc2)C(=O)N1` (stereo not drawn), the half-life at 24 h in the data set “in vitro” (MV4-11 cells) was above 1440 min. Further, in the data set “physchem [1]”, the logD was 0.6.

Regarding `O=C1CCC(c2ccnc3[nH]ncc23)C(=O)N1` (stereo not drawn), the logD in “physchem [1]” is -0.3.

In turn, `Nc1cccc2c1CN(C1CCC(=O)NC1=O)C2=O` (stereo not drawn) [LENALIDOMIDE] showed a half-life at 24 h in the data set “in vitro” (MV4-11 cells) of 720 min. Besides, the half-life at 48 h in “physchem [2]” is 54 min.

As for `O=C1CCC(c2ccc3[nH]ncc3c2)C(=O)N1` (stereo not drawn), in the data set “physchem [1]”, the logD turned out to be 0.3.

For `Nc1cccc2c1C(=O)N(C1CCC(=O)NC1=O)C2=O` (stereo not drawn) [POMALIDOMIDE], the half-life at 24 h in the data set “in vitro” (mv4-11) is 720 min. Also, the half-life at 48 h in the data set “physchem [2]” was 24 min. The logD in the data set “physchem [1]” was found to be 1.3.

With `O=C1CCN(c2ccccc2)C(=O)N1`, the logD in the data set “physchem [1]” was 0.3.

In the data set “in vitro” (MV4-11 cells), `O=C1CCC(N2C(=O)c3ccccc3C2=O)C(=O)N1` (stereo not drawn) [THALIDOMIDE] gave a half-life at 24 h of 198 min. In “physchem [1]”, this compound displayed a logD of 0.7.
